Measurements published in ChEMBL document CHEMBL1201862, “PubChem BioAssay data set” (2004).
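Five compound concentrations were applied to cells in 96-well plates for 48 hours; endpoints were derived by simple linear interpolation of the resulting dose-response curve. GI50 marks 50% less growth.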 Active and inactive are the calls of the source. Cut-off read from the data, not from the text of the source: active = GI50 up to about 1.1 µM and inactive = higher.

Legend:
Assay in all cases: NCI anticancer screen, dose series, 48 h
[1] = test system: NCI-H226
[2] = test system: COLO 205
[3] = test system: SR
[4] = test system: SK-MEL-28
[5] = test system: LOX IMVI
[6] = test system: SNB-78
[7] = test system: TK-10
[8] = test system: DLD-1
[9] = test system: M14
[10] = test system: RXF 393
[11] = test system: RPMI-8226
[12] = test system: SK-OV-3
[13] = test system: HCT-15
[14] = test system: SF-295
[15] = test system: HL-60
[16] = test system: HOP-18
[17] = test system: DMS-114
[18] = test system: SK-MEL-5
[19] = test system: SN12C
[20] = test system: U-251
[21] = test system: SK-MEL-2
[22] = test system: IGROV-1
[23] = test system: OVCAR-4
[24] = test system: CCRF-CEM
[25] = test system: UACC-257
[26] = test system: LXFL 529
[27] = test system: MOLT-4
[28] = test system: SW-620
[29] = test system: SNB-75
[30] = test system: ACHN
[31] = test system: XF498
[32] = test system: Malme-3M
[33] = test system: KM-20L2
[34] = test system: CAKI-1
[35] = test system: K562
[36] = test system: UO-31
[37] = test system: KM12
[38] = test system: HCC 2998
[39] = test system: A549
[40] = test system: SF-268
[41] = test system: NCI-H460
[42] = test system: EKVX
[43] = test system: DMS-273
[44] = test system: SF-539
[45] = test system: M19-MEL
[46] = test system: HCT-116
[47] = test system: OVCAR-8
[48] = test system: OVCAR-5
[49] = test system: SNB-19
[50] = test system: HOP-92

For Cn1c(=O)[nH]c2c(c1=O)C(=O)CN2, the GI50 [1] was 36.2 µM (inactive), the GI50 [2] was > 100 µM (inactive) and the GI50 [3] was > 100 µM (inactive). For the same compound, the GI50 [4] was > 100 µM (inactive), the GI50 [5] was > 100 µM (inactive) and the GI50 [6] was > 100 µM (inactive). The GI50 [7] was > 100 µM (inactive), the GI50 [8] was > 100 µM (inactive) and the GI50 [9] was > 100 µM (inactive). For the same compound, the GI50 [10] was > 100 µM (inactive), the GI50 [11] was > 100 µM (inactive) and the GI50 [12] was > 100 µM (inactive). The GI50 [13] was greater than 100 µM, the GI50 [14] was > 100 µM (inactive) and the GI50 [15] was > 100 µM (inactive). The GI50 [16] was > 100 µM (inactive), the GI50 [17] was > 100 µM (inactive) and the GI50 [18] was > 100 µM (inactive). The GI50 [19] was > 100 µM (inactive), the GI50 [20] was > 100 µM (inactive) and the GI50 [21] was > 100 µM (inactive). For the same compound, the GI50 [22] was > 100 µM (inactive), the GI50 [23] was > 100 µM (inactive) and the GI50 [24] was > 100 µM (inactive). The GI50 [25] was > 100 µM (inactive), the GI50 [26] was > 100 µM (inactive) and the GI50 [27] was > 100 µM (inactive). The GI50 [28] was > 100 µM (inactive), the GI50 [29] was > 100 µM (inactive) and the GI50 [30] was > 10 µM (inactive). The GI50 [31] was > 100 µM (inactive), the GI50 [32] was > 100 µM (inactive) and the GI50 [33] was > 100 µM (inactive). The GI50 [34] was > 100 µM (inactive), the GI50 [35] was > 100 µM (inactive) and the GI50 [36] was > 100 µM (inactive). For the same compound, the GI50 [37] was > 100 µM (inactive), the GI50 [38] was > 100 µM (inactive) and the GI50 [39] was > 100 µM (inactive). The GI50 [40] was > 100 µM (inactive), the GI50 [41] was > 100 µM (inactive) and the GI50 [42] was > 100 µM (inactive). The GI50 [43] was > 100 µM (inactive), the GI50 [44] was > 100 µM (inactive) and the GI50 [45] was > 100 µM (inactive). For the same compound, the GI50 [46] was > 100 µM (inactive), the GI50 [47] was > 100 µM (inactive) and the GI50 [48] was > 100 µM (inactive). For the same compound, the GI50 [49] was > 100 µM (inactive) and the GI50 [50] was < 0.01 µM (active).
